Source: patent US6355799B1, “Substituted benzene compounds, process for their preparation, and herbicidal and defoliant compositions containing them” (ISK Americas Incorporated, priority 1997, dated 2002)

Tests used:
Assay type in all cases: in vivo
[1] = system: redroot pigweed (Amaranthus retroflexus, AMARE); assay: Pre-emerge test, greenhouse herbicide activity screening; conditions: phytotoxicity rating 0-100, 14 days after application
How it was run: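 Plants grown in 10 cm pots of sandy loam mix received acetone-dissolved compounds through a moving flat-fan nozzle. Doses ranged from 15 to 1000 g ai/ha. Pre-emerge pots were seeded one day earlier, post-emerge pots 8–21 days earlier. Fourteen days on, each pot was graded 0–100 for damage.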

[2] = system: barnyardgrass (Echinochloa crus-galli, ECHCG); assay: as above; conditions: phytotoxicity rating 0-100, 14 days after application
How it was run: (§1)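 Visual ratings on a 0-100 scale (0 no damage, 100 all plants dead) were taken at 14 days after treatment. Rates of 15-1000 g ai/ha in acetone, 187 l/ha, were sprayed onto soil one day after planting (pre-emerge) or onto 2-3 leaf plants with 0.25% v/v surfactant (post-emerge).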

[3] = system: green foxtail (Setaria viridis, SETVI); assay: as above; conditions: phytotoxicity rating 0-100, 14 days after application
How it was run: as §1

[4] = system: ivyleaf morningglory (Ipomoea hederacea, IPOHE); assay: as above; conditions: phytotoxicity rating 0-100, 14 days after application
How it was run: as §1

[5] = system: lambsquarters (Chenopodium album, CHEAL); assay: as above; conditions: phytotoxicity rating 0-100, 14 days after application
How it was run: as §1

[6] = system: large crabgrass (Digitaria sanguinalis, DIGSA); assay: as above; conditions: phytotoxicity rating 0-100, 14 days after application
How it was run: as §1

[7] = system: sicklepod (Cassia obtusifolia, CASOB); assay: as above; conditions: phytotoxicity rating 0-100, 14 days after application
How it was run: as §1

[8] = system: velvetleaf (Abutilon theophrasti, ABUTH); assay: as above; conditions: phytotoxicity rating 0-100, 14 days after application
How it was run: as §1

[9] = system: field corn (Zea mays L., var. Dekalb 535, CORN); assay: Pre-emerge test, crop safety; conditions: crop damage rating 0-100, 14 days after application
How it was run: (§2)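 Compounds in acetone were track-sprayed at 15-1000 g ai/ha (187 l/ha) on sandy loam pots: pre-emerge one day after seeding, post-emerge at 2-3 leaf stage with 0.25% v/v non-ionic surfactant. Phytotoxicity was rated 14 days later on a 0 (no damage) to 100 (complete death) scale.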

[10] = system: upland rice (Oryza sp., var. Tebonnet, RICE); assay: Pre-emerge test, crop safety; conditions: crop damage rating 0-100, 14 days after application
How it was run: as §2

[11] = system: barnyardgrass (Echinochloa crus-galli, ECHCG); assay: Post-emerge test, greenhouse herbicide activity screening; conditions: post-emerge, 14 days after application, rating scale 0-100
How it was run: (§3)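 Applied at 15–1000 g ai/ha from acetone in 187 l/ha spray volume. Post-emergence applications included 0.25% v/v non-ionic surfactant and reached plants sown 8–21 days before. Pre-emergence applications were incorporated by surface watering. Efficacy or crop damage was rated on a 0–100 scale after 14 days.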

[12] = system: green foxtail (Setaria viridis, SETVI); assay: as above; conditions: post-emerge, 14 days after application, rating scale 0-100
How it was run: as §3

[13] = system: ivyleaf morningglory (Ipomoea hederacea, IPOHE); assay: as above; conditions: post-emerge, 14 days after application, rating scale 0-100
How it was run: as §3

[14] = system: johnsongrass (Sorghum halepense, SORHA); assay: as above; conditions: post-emerge, 14 days after application, rating scale 0-100
How it was run: as §3

[15] = system: lambsquarters (Chenopodium album, CHEAL); assay: as above; conditions: post-emerge, 14 days after application, rating scale 0-100
How it was run: as §3

[16] = system: large crabgrass (Digitaria sanguinalis, DIGSA); assay: as above; conditions: post-emerge, 14 days after application, rating scale 0-100
How it was run: as §3

[17] = system: redroot pigweed (Amaranthus retroflexus, AMARE); assay: as above; conditions: post-emerge, 14 days after application
How it was run: as §3

[18] = system: sicklepod (Cassia obtusifolia, CASOB); assay: as above; conditions: post-emerge, 14 days after application, rating scale 0-100
How it was run: as §3

[19] = system: velvetleaf (Abutilon theophrasti, ABUTH); assay: as above; conditions: post-emerge, 14 days after application, rating scale 0-100
How it was run: as §3

[20] = system: field corn (Zea mays L., var. Dekalb 535, CORN); assay: Post-emerge test, crop safety; conditions: post-emerge, 14 days after application, rating scale 0-100
How it was run: as §1

[21] = system: upland rice (Oryza sp., var. Tebonnet, RICE); assay: Post-emerge test, crop safety; conditions: post-emerge, 14 days after application, rating scale 0-100
How it was run: as §1

COc1c(Cl)cc(F)c(-n2c(=O)cc(C(F)(F)F)n(C)c2=O)c1NC(=O)OCc1cc(C)cc(C)c1 [4-37]
100: Pre-emerge Herbicidal Activity AMARE ([1]; 63 g ai/ha) | Pre-emerge Herbicidal Activity AMARE ([1]; 250 g ai/ha) | Pre-emerge Herbicidal Activity SETVI ([3]; 250 g ai/ha) | Pre-emerge Herbicidal Activity CHEAL ([5]; 63 g ai/ha) | Pre-emerge Herbicidal Activity CHEAL ([5]; 250 g ai/ha) | Pre-emerge Herbicidal Activity ABUTH ([8]; 63 g ai/ha) | phytotoxicity rating IPOHE ([13]; 63 g ai/ha) | phytotoxicity rating IPOHE ([13]; 250 g ai/ha) | phytotoxicity rating CHEAL ([15]; 63 g ai/ha) | phytotoxicity rating CHEAL ([15]; 250 g ai/ha) | phytotoxicity rating AMARE ([17]; 63 g ai/ha, rating scale 0-100 (0 no damage, 100 complete death)) | phytotoxicity rating AMARE ([17]; 250 g ai/ha, rating scale 0-100) | phytotoxicity rating CASOB ([18]; 250 g ai/ha) | phytotoxicity rating ABUTH ([19]; 63 g ai/ha) | phytotoxicity rating ABUTH ([19]; 250 g ai/ha)
30: Pre-emerge Herbicidal Activity IPOHE ([4]; 63 g ai/ha) | Pre-emerge Herbicidal Activity CASOB ([7]; 63 g ai/ha) | Pre-emerge Herbicidal Activity RICE ([10]; 250 g ai/ha)
0: Pre-emerge Herbicidal Activity CORN ([9]; 63 g ai/ha) | Pre-emerge Herbicidal Activity CORN ([9]; 250 g ai/ha)
40: Pre-emerge Herbicidal Activity CASOB ([7]; 250 g ai/ha) | phytotoxicity rating SORHA ([14]; 63 g ai/ha)
60: Pre-emerge Herbicidal Activity ECHCG ([2]; 250 g ai/ha) | Pre-emerge Herbicidal Activity DIGSA ([6]; 63 g ai/ha) | phytotoxicity rating ECHCG ([11]; 250 g ai/ha) | phytotoxicity rating SORHA ([14]; 250 g ai/ha) | phytotoxicity rating CORN (crop damage) ([20]; 250 g ai/ha) | phytotoxicity rating RICE (crop damage) ([21]; 250 g ai/ha)
50: Pre-emerge Herbicidal Activity IPOHE ([4]; 250 g ai/ha) | phytotoxicity rating DIGSA ([16]; 63 g ai/ha)
20: phytotoxicity rating ECHCG ([11]; 63 g ai/ha) | phytotoxicity rating CORN (crop damage) ([20]; 63 g ai/ha)
90: Pre-emerge Herbicidal Activity SETVI ([3]; 63 g ai/ha) | Pre-emerge Herbicidal Activity DIGSA ([6]; 250 g ai/ha) | Pre-emerge Herbicidal Activity ABUTH ([8]; 250 g ai/ha) | phytotoxicity rating SETVI ([12]; 63 g ai/ha) | phytotoxicity rating SETVI ([12]; 250 g ai/ha) | phytotoxicity rating CASOB ([18]; 63 g ai/ha)
70: phytotoxicity rating DIGSA ([16]; 250 g ai/ha)
10: Pre-emerge Herbicidal Activity ECHCG ([2]; 63 g ai/ha) | Pre-emerge Herbicidal Activity RICE ([10]; 63 g ai/ha) | phytotoxicity rating RICE (crop damage) ([21]; 63 g ai/ha)
